Laboratory results taken from PMC9569450, “Dual Effect of Tryptamine on Prostate Cancer Cell Growth Regulation: A Pilot Study” (International Journal of Molecular Sciences, 2022).

Tested on: A549 cells
Test: MTT cell proliferation assay, A549
Type: cell-based
Conditions: Homo sapiens, A549, 48 h treatment in FBS-free medium, read-out: IC50 Value (Mean ± SD mM) A549
Method: PC-3, LNCaP, RWPE-1, HepG2, A549, and PANC-1 cells were purchased from the National Collection of Authenticated Cell Cultures (Shanghai, China). […] All the above cell cultures were supplied with 10% fetal bovine serum and 1% penicillin-streptomycin. RWPE-1 cells were cultured in keratinocyte serum-free medium (K-SFM, Gibco, New York, NY, USA) supplemented with 50 mg/L bovine pituitary extract and 5 μg/L epidermal growth factor (EGF). All cell lines were grown in a humidified atmosphere of 5% CO2 at 37 °C.
Cells were seeded in 100 μL complete medium in a 96-well plate, at a density of 10,000 cells/well for LNCaP and 5000 cells/well for other cells. Cells were pre-incubated for 24 h to allow for adherence before removal of complete medium and treatment with various concentrations of compounds in fetal bovine serum (FBS)-free medium for 48 h. After treatment, 20 μL/well MTT (5 mg/mL) was added and incubated for 3–4 h at 37 °C, and then 100 μL/well DMSO was added for MTT assay. The plate was shaken on an orbital shaker for 10 min. Absorbance was measured using a microplate reader at 492 nm for the MTT assay (performed in triplicates). Cell viability was normalized to control. Half inhibitory concentration (IC50) was calculated by SPSS Statistics 17.0. […] The experiments were independently repeated two to three times.

NCCc1c[nH]c2ccccc12 [Tryptamine]
IC50: 0.46 ± 0.01 mM
